# Test results from PubChem BioAssay (NCI).
#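 Cells were grown in 96-well plates and exposed to each compound for 48 hours at five concentrations; endpoints were interpolated linearly between bracketing concentrations, or set to the highest concentration if not reached. TGI: concentration producing complete growth inhibition.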
# Columns and labels:
# Assay in all cases: NCI-60 cell line screen, 48 h
# K-562 leukemia = system: K-562 leukemia
# ACHN renal = system: ACHN renal
# SK-MEL-5 melanoma = system: SK-MEL-5 melanoma
# T-47D breast = system: T-47D breast
# OVCAR-3 ovarian = system: OVCAR-3 ovarian
# NCI/ADR-RES ovarian = system: NCI/ADR-RES ovarian
# IGROV1 ovarian = system: IGROV1 ovarian
# SK-OV-3 ovarian = system: SK-OV-3 ovarian
# LOX IMVI melanoma = system: LOX IMVI melanoma
# RPMI-8226 leukemia = system: RPMI-8226 leukemia
# 786-0 renal = system: 786-0 renal
# COLO 205 colon = system: COLO 205 colon
# SF-295 CNS = system: SF-295 CNS
# A549 NSCLC = system: A549 NSCLC
# SNB-19 CNS = system: SNB-19 CNS
# U251 CNS = system: U251 CNS
# SF-268 CNS = system: SF-268 CNS
# NCI-H522 lung = system: NCI-H522 lung
# MCF7 breast = system: MCF7 breast
# MDA-MB-435 = system: MDA-MB-435
# HT29 colon = system: HT29 colon
# MDA-N = system: MDA-N
# OVCAR-4 ovarian = system: OVCAR-4 ovarian
# OVCAR-8 ovarian = system: OVCAR-8 ovarian
# UACC-257 melanoma = system: UACC-257 melanoma
# SN12C renal = system: SN12C renal
# SR leukemia = system: SR leukemia
# RXF 393 renal = system: RXF 393 renal
# HCT-116 colon = system: HCT-116 colon
# PC-3 prostate = system: PC-3 prostate
# SK-MEL-2 melanoma = system: SK-MEL-2 melanoma
# DU-145 prostate = system: DU-145 prostate
# SW-620 colon = system: SW-620 colon
# BT-549 breast = system: BT-549 breast
# UO-31 renal = system: UO-31 renal
# TK-10 renal = system: TK-10 renal
# SK-MEL-28 melanoma = system: SK-MEL-28 melanoma
# SF-539 CNS = system: SF-539 CNS
# NCI-H460 lung = system: NCI-H460 lung
# NCI-H23 lung = system: NCI-H23 lung
# UACC-62 melanoma = system: UACC-62 melanoma
# SNB-75 CNS = system: SNB-75 CNS
# CCRF-CEM leukemia = system: CCRF-CEM leukemia
# CAKI-1 renal = system: CAKI-1 renal
# KM12 colon = system: KM12 colon
# EKVX NSCLC = system: EKVX NSCLC
# HOP-62 NSCLC = system: HOP-62 NSCLC
# MDA-MB-231 breast = system: MDA-MB-231 breast
# HCC-2998 colon = system: HCC-2998 colon
# MOLT-4 leukemia = system: MOLT-4 leukemia
# HCT-15 colon = system: HCT-15 colon
# HS 578T breast = system: HS 578T breast
# NCI-H226 lung = system: NCI-H226 lung
# OVCAR-5 ovarian = system: OVCAR-5 ovarian
# HOP-92 NSCLC = system: HOP-92 NSCLC
# HL-60(TB) leukemia = system: HL-60(TB) leukemia
# MALME-3M melanoma = system: MALME-3M melanoma
# M14 melanoma = system: M14 melanoma
structure (smiles),measurement,setting,value
CC(=O)CCC[C@H](C)[C@@H](O)[C@@H]1O[C@H]([C@@]2(C)CCC(=O)O2)C[C@H]1C(=O)O,TGI,K-562 leukemia,> 100 µM
same,TGI,ACHN renal,> 100 µM
same,TGI,SK-MEL-5 melanoma,> 100 µM
same,TGI,T-47D breast,> 100 µM
same,TGI,OVCAR-3 ovarian,> 100 µM
same,TGI,NCI/ADR-RES ovarian,> 100 µM
same,TGI,IGROV1 ovarian,> 100 µM
same,TGI,SK-OV-3 ovarian,> 100 µM
same,TGI,LOX IMVI melanoma,> 100 µM
same,TGI,RPMI-8226 leukemia,> 100 µM
same,TGI,786-0 renal,> 100 µM
same,TGI,COLO 205 colon,> 100 µM
same,TGI,SF-295 CNS,> 100 µM
same,TGI,A549 NSCLC,> 100 µM
same,TGI,SNB-19 CNS,> 100 µM
same,TGI,U251 CNS,> 100 µM
same,TGI,SF-268 CNS,> 100 µM
same,TGI,NCI-H522 lung,> 100 µM
same,TGI,MCF7 breast,> 100 µM
same,TGI,MDA-MB-435,> 100 µM
same,TGI,HT29 colon,> 100 µM
same,TGI,MDA-N,> 100 µM
same,TGI,OVCAR-4 ovarian,> 100 µM
same,TGI,OVCAR-8 ovarian,> 100 µM
same,TGI,UACC-257 melanoma,> 100 µM
same,TGI,SN12C renal,> 100 µM
same,TGI,SR leukemia,> 100 µM
same,TGI,RXF 393 renal,> 100 µM
same,TGI,HCT-116 colon,> 100 µM
same,TGI,PC-3 prostate,> 100 µM
same,TGI,SK-MEL-2 melanoma,> 100 µM
same,TGI,DU-145 prostate,> 100 µM
same,TGI,SW-620 colon,> 100 µM
same,TGI,BT-549 breast,> 100 µM
same,TGI,UO-31 renal,> 100 µM
same,TGI,TK-10 renal,> 100 µM
same,TGI,SK-MEL-28 melanoma,> 100 µM
same,TGI,SF-539 CNS,> 100 µM
same,TGI,NCI-H460 lung,> 100 µM
same,TGI,NCI-H23 lung,> 100 µM
same,TGI,UACC-62 melanoma,> 100 µM
same,TGI,SNB-75 CNS,> 100 µM
same,TGI,CCRF-CEM leukemia,> 100 µM
same,TGI,CAKI-1 renal,> 100 µM
same,TGI,KM12 colon,> 100 µM
same,TGI,EKVX NSCLC,> 100 µM
same,TGI,HOP-62 NSCLC,> 100 µM
same,TGI,MDA-MB-231 breast,> 100 µM
same,TGI,HCC-2998 colon,> 100 µM
same,TGI,MOLT-4 leukemia,> 100 µM
same,TGI,HCT-15 colon,> 100 µM
same,TGI,HS 578T breast,> 100 µM
same,TGI,NCI-H226 lung,> 100 µM
same,TGI,OVCAR-5 ovarian,> 100 µM
O=Nc1c(NO)ccc2nn(-c3ccccc3)nc12,TGI,K-562 leukemia,> 100 µM
same,TGI,ACHN renal,47.7 µM
same,TGI,SK-MEL-5 melanoma,10.8 µM
same,TGI,T-47D breast,> 100 µM
same,TGI,OVCAR-3 ovarian,> 100 µM
same,TGI,NCI/ADR-RES ovarian,> 100 µM
same,TGI,IGROV1 ovarian,49.4 µM
same,TGI,SK-OV-3 ovarian,> 100 µM
same,TGI,LOX IMVI melanoma,> 100 µM
same,TGI,RPMI-8226 leukemia,> 100 µM
same,TGI,786-0 renal,> 100 µM
same,TGI,COLO 205 colon,> 100 µM
same,TGI,SF-295 CNS,> 100 µM
same,TGI,A549 NSCLC,> 100 µM
same,TGI,SNB-19 CNS,> 100 µM
same,TGI,U251 CNS,> 100 µM
same,TGI,SF-268 CNS,> 100 µM
same,TGI,NCI-H522 lung,13.2 µM
same,TGI,MCF7 breast,19.6 µM
same,TGI,MDA-MB-435,38.3 µM
same,TGI,HT29 colon,> 100 µM
same,TGI,MDA-N,> 100 µM
same,TGI,HOP-92 NSCLC,> 100 µM
same,TGI,OVCAR-4 ovarian,> 100 µM
same,TGI,OVCAR-8 ovarian,> 100 µM
same,TGI,UACC-257 melanoma,11.7 µM
same,TGI,SN12C renal,40 µM
same,TGI,SR leukemia,> 100 µM
same,TGI,HCT-116 colon,23.1 µM
same,TGI,PC-3 prostate,> 100 µM
same,TGI,HL-60(TB) leukemia,> 100 µM
same,TGI,SK-MEL-2 melanoma,> 100 µM
same,TGI,DU-145 prostate,> 100 µM
same,TGI,SW-620 colon,> 100 µM
same,TGI,BT-549 breast,> 100 µM
same,TGI,UO-31 renal,11.8 µM
same,TGI,TK-10 renal,> 100 µM
same,TGI,SK-MEL-28 melanoma,43.3 µM
same,TGI,SF-539 CNS,18.4 µM
same,TGI,NCI-H460 lung,> 100 µM
same,TGI,UACC-62 melanoma,9.21 µM
same,TGI,SNB-75 CNS,> 100 µM
same,TGI,CCRF-CEM leukemia,> 100 µM
same,TGI,CAKI-1 renal,71.3 µM
same,TGI,KM12 colon,> 100 µM
same,TGI,EKVX NSCLC,> 100 µM
same,TGI,HOP-62 NSCLC,> 100 µM
same,TGI,MALME-3M melanoma,> 100 µM
same,TGI,MDA-MB-231 breast,> 100 µM
same,TGI,HCC-2998 colon,85.5 µM
same,TGI,M14 melanoma,> 100 µM
same,TGI,MOLT-4 leukemia,74.5 µM
same,TGI,HCT-15 colon,> 100 µM
same,TGI,HS 578T breast,> 100 µM
same,TGI,NCI-H226 lung,6.64 µM
same,TGI,OVCAR-5 ovarian,37.6 µM
